# Laboratory results from patent publication US20150157739A1, “Imidazo[2,1]thiazol-3-one derivatives” (Hoffmann-La Roche Inc., priority 2012, published 2015).
# pIC50: −log10 of the molar value.
# Experiments:
# [1] = biological target: T1, aggregated recombinant human-microtubule associated protein Tau (Homo sapiens, UniProt P10636); test: Thiazin-red R displacement fluorescence assay on aggregated Tau; type: binding; conditions: displacement of Thiazin-red R from aggregated Tau; compound 0.3 nM to 10000 nM; 30 min room temperature; Ex 531 nm/Em 595 nm
# T1 construct: Recombinant human-microtubule associated protein Tau purified from E. coli is aggregated at a concentration of 5 μM with Arachidonic Acid (100 μM) in Tris 10 mM pH8, 24 h at 37° C
# T1 sequence (P10636 whole entry): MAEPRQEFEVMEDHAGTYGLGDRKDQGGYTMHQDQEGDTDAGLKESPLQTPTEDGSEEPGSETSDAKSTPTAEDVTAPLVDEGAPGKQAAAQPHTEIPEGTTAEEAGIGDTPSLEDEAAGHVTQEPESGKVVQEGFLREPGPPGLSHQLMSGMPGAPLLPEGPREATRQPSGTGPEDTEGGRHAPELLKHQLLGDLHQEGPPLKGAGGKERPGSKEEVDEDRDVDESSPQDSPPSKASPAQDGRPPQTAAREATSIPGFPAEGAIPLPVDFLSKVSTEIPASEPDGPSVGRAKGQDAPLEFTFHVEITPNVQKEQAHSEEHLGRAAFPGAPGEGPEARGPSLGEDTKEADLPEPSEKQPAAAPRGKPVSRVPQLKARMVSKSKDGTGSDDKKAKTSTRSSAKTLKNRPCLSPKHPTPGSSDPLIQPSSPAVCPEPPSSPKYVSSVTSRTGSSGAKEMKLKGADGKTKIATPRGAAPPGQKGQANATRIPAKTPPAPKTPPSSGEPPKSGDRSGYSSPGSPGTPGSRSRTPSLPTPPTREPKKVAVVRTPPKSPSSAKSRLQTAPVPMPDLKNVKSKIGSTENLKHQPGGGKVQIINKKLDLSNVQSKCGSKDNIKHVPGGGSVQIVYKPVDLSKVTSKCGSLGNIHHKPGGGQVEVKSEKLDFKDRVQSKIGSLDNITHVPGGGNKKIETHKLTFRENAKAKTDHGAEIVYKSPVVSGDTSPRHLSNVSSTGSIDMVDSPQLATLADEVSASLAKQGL
# [2] = biological target: T2, aggregated synthetic Aβ40 (Homo sapiens, UniProt P05067); test: Thiazin-red R displacement fluorescence assay on aggregated A-beta; type: binding; conditions: displacement of Thiazin-red R from aggregated Aβ40; compound 0.3 nM to 10000 nM; 30 min room temperature; Ex 531 nm/Em 595 nm
# T2 construct: Synthetic Aβ40 is aggregated at a concentration of 50 μM
# T2 sequence (P05067 672-711 limits assumed): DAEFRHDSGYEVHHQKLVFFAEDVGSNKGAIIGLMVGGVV
pIC50 [1],pIC50 [2],Structure (SMILES)
7.77,6.27,"COc1cccc(-c2cn3c(=O)/c(=C/c4cc(F)c(O)c(OC)c4)sc3n2)c1 [Example 47, 2-[1-(3-Fluoro-4-hydroxy-5-methoxy-phenyl)-meth-(Z)-ylidene]-6-(3-methoxy-phenyl)-imidazo[2,1-b]thiazol-3-one]"
7.80,5.93,"C=CCNC(=O)c1cccc(-c2cn3c(=O)/c(=C/c4cc(Cl)c(O)c(OC)c4)sc3n2)c1 [Example 113, N-Allyl-3-{2-[1-(3-chloro-4-hydroxy-5-methoxy-phenyl)-meth-(Z)-ylidene]-3-oxo-2,3-dihydro-imidazo[2,1-b]thiazol-6-yl}-benzamide]"
8.89,6.91,"COc1cc(/C=c2\sc3nc(-c4ccnc(C)c4)cn3c2=O)cc(Cl)c1O [Example 75, 2-[1-(3-Chloro-4-hydroxy-5-methoxy-phenyl)-meth-(Z)-ylidene]-6-(2-methylpyridin-4-yl)-imidazo[2,1-b]thiazol-3-one]"
7.72,6.12,"COc1cc(/C=c2\sc3nc(-c4cccc(F)c4)cn3c2=O)cc(F)c1O [Example 58, 2-[1-(3-Fluoro-4-hydroxy-5-methoxy-phenyl)-meth-(Z)-ylidene]-6-(3-fluoro-phenyl)-imidazo[2,1-b]thiazol-3-one]"
7.29,5.63,"COc1cc(/C=c2\sc3nc(-c4ccccc4)cn3c2=O)cc(F)c1O [Example 43, 2-[1-(3-fluoro-4-hydroxy-5-methoxy-phenyl)-meth-(Z)-ylidene]-6-phenyl-imidazo[2,1-b]thiazol-3-one]"
6.56,< 5.00,"COc1cc(/C=c2\sc3nc(-c4cccc(C#N)c4)cn3c2=O)cc(OC(C)C)c1O [Example 51, 3-{2-[1-(4-Hydroxy-3-methoxy-5-isopropoxyphenyl)-meth-(Z)-ylidene]-3-oxo-2,3-dihydro-imidazo[2,1-b]thiazol-6-yl}-benzonitrile]"
7.92,7.62,"COc1cc(/C=c2\sc3nc(-c4ccc(C(=O)NCCN)cc4)cn3c2=O)cc(Cl)c1O [Example 151, N-(2-Amino-ethyl)-4-{2-[1-(3-chloro-4-hydroxy-5-methoxy-phenyl)-meth-(Z)-ylidene]-3-oxo-2,3-dihydro-imidazo[2,1-b]thiazol-6-yl}-benzamide]"
7.39,6.35,COc1cc(/C=c2\sc3nc(-c4ccc(C(=O)N(C)CCCF)cc4)cn3c2=O)cc(F)c1O [Example 147]
7.60,6.59,"CCCOc1cc(/C=c2\sc3nc(-c4cccc(OC(F)(F)F)c4)cn3c2=O)cc(OC)c1O [Example 33, 2-[1-(4-Hydroxy-3-methoxy-5-propoxy-phenyl)-meth-(Z)-ylidene]-6-(3-trifluoromethoxy-phenyl)-imidazo[2,1-b]thiazol-3-one]"
9.22,7.85,"COc1cc(/C=c2\sc3nc(-c4ccc(OC(F)F)cc4)cn3c2=O)cc(Cl)c1O [Example 88, 2-[1-(3-Chloro-4-hydroxy-5-methoxy-phenyl)-meth-(Z)-ylidene]-6-(4-(difluoromethoxy)phenyl)-imidazo[2,1-b]thiazol-3-one]"
8.52,7.70,"COc1cc(/C=c2\sc3nc(-c4cccc(C)c4)cn3c2=O)cc(OC)c1O [Example 20, 2-[1-(4-Hydroxy-3,5-dimethoxy-phenyl)-meth-(Z)-ylidene]-6-m-tolyl-imidazo[2,1-b]thiazol-3-one]"
8.89,6.99,"COc1cc(/C=c2\sc3nc(-c4ccncc4)cn3c2=O)cc(Br)c1O [Example 70, 2-[1-(3-Bromo-4-hydroxy-5-methoxy-phenyl)-meth-(Z)-ylidene]-6-(pyridin-4-yl)-imidazo[2,1-b]thiazol-3-one]"
7.62,6.45,"COc1cc(/C=c2\sc3nc(-c4cccc(N5CCOCC5)c4)cn3c2=O)cc(Cl)c1O [Example 89, 2-[1-(3-Chloro-4-hydroxy-5-methoxy-phenyl)-meth-(Z)-ylidene]-6-(3-morpholinophenyl)-imidazo[2,1-b]thiazol-3-one]"
7.64,5.98,"COc1cc(/C=c2\sc3nc(-c4ccc(C(F)(F)F)c(F)c4)cn3c2=O)cc(Cl)c1O [Example 28, 2-[1-(3-Chloro-4-hydroxy-5-methoxy-phenyl)-meth-(Z)-ylidene]-6-(3-fluoro-4-trifluoromethyl-phenyl)-imidazo[2,1-b]thiazol-3-one]"
7.80,5.25,"COc1cc(/C=c2\sc3nc(-c4ccccc4F)cn3c2=O)cc(Cl)c1O [Example 53, 2-[1-(3-Chloro-4-hydroxy-5-methoxy-phenyl)-meth-(Z)-ylidene]-6-(2-fluoro-phenyl)-imidazo[2,1-b]thiazol-3-one]"
8.30,7.17,"COc1cc(/C=c2\sc3nc(-c4cc(C)nc(C)c4)cn3c2=O)cc(OC)c1O [Example 17, 2-[1-(4-Hydroxy-3,5-dimethoxy-phenyl)-meth-(Z)-ylidene]-6-(2,6-dimethyl-pyridin-4-yl)-imidazo[2,1-b]thiazol-3-one]"
9.10,5.76,"COc1cc(/C=c2\sc3nc(-c4cc(Br)cc(C#N)c4)cn3c2=O)cc(Cl)c1O [Example 85, 3-Bromo-5-{2-[1-(3-chloro-4-hydroxy-5-methoxy-phenyl)-meth-(Z)-ylidene]-3-oxo-2,3-dihydro-imidazo[2,1-b]thiazol-6-yl}-benzonitrile]"
6.98,6.15,"COc1cc(/C=c2\sc3nc(-c4ccccc4C)cn3c2=O)cc(F)c1O [Example 9, 2-[1-(3-Fluoro-4-hydroxy-5-methoxy-phenyl)-meth-(Z)-ylidene]-6-o-tolyl-imidazo[2,1-b]thiazol-3-one]"
7.59,6.01,"CCCOc1cc(/C=c2\sc3nc(-c4ccsc4)cn3c2=O)cc(Cl)c1O [Example 131, 2-[1-(3-Chloro-4-hydroxy-5-propoxy-phenyl)-meth-(Z)-ylidene]-6-thiophen-3-yl-imidazo[2,1-b]thiazol-3-one]"
8.40,6.40,"COc1cccc(-c2cn3c(=O)/c(=C/c4cc(Cl)c(O)c(OC)c4)sc3n2)c1 [Example 61, 2-[1-(3-Chloro-4-hydroxy-5-methoxy-phenyl)-meth-(Z)-ylidene]-6-(3-methoxy-phenyl)-imidazo[2,1-b]thiazol-3-one]"
7.55,5.91,"COc1cc(/C=c2\sc3nc(-c4ccccc4C)cn3c2=O)cc(Cl)c1O [Example 10, 2-[1-(3-Chloro-4-hydroxy-5-methoxy-phenyl)-meth-(Z)-ylidene]-6-o-tolyl-imidazo[2,1-b]thiazol-3-one]"
7.85,6.49,"COc1ccc(-c2cn3c(=O)/c(=C/c4cc(Cl)c(O)c(OC)c4)sc3n2)cc1OC [Example 99, 2-[1-(3-Chloro-4-hydroxy-5-methoxy-phenyl)-meth-(Z)-ylidene]-6-(3,4-dimethoxy-phenyl)-imidazo[2,1-b]thiazol-3-one]"
8.70,8.40,"CCOc1cc(/C=c2\sc3nc(-c4ccc(Cl)cc4)cn3c2=O)cc(OC)c1O [Example 26, 6-(4-Chloro-phenyl)-2-[1-(3-ethoxy-4-hydroxy-5-methoxy-phenyl)-meth-(Z)-ylidene]-imidazo[2,1-b]thiazol-3-one]"
6.75,5.94,"CCOc1cc(/C=c2\sc3nc(-c4ccc(Cl)cc4)cn3c2=O)ccc1O [Example 5, 6-(4-Chloro-phenyl)-2-[1-(3-ethoxy-4-hydroxy-phenyl)-meth-(Z)-ylidene]-imidazo[2,1-b]thiazol-3-one]"
7.17,5.71,"CCCOc1cc(/C=c2\sc3nc(-c4cncnc4)cn3c2=O)cc(Cl)c1O [Example 130, 2-[1-(3-Chloro-4-hydroxy-5-propoxy-phenyl)-meth-(Z)-ylidene]-6-pyrimidin-5-yl-imidazo[2,1-b]thiazol-3-one]"
